Test results: PubChem BioAssay AID256 (DTP/NCI, 2004)
Values joined by “and” are separate entries in the source; they are usually repeats but may differ in a detail not shown here. Identical values can stand only once. Toxic doses and inconclusive results are not listed.

Test system: CD2F1 mice, L1210 leukemia ip, survival T/C
Test: NCI In Vivo Anticancer Drug Screen. Data for tumor model L1210 Leukemia (intraperitoneal) in CD2F1 (CDF1) mice
Conditions: higher = longer survival
Outline: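 Mice carrying a transplanted tumor received test compound or vehicle alone. The value is the measurement in the treated group divided by that in the vehicle-treated control group.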

[1] = endpoint: mean survival time, dose: 100.0 mg/kg/injection, schedule: Q04DX003 (ip), vehicle: saline with Tween-80
[2] = endpoint: mean survival time, dose: 200.0 mg/kg/injection, schedule: Q04DX003 (ip), vehicle: saline with Tween-80
[3] = endpoint: mean survival time, dose: 400.0 mg/kg/injection, schedule: Q04DX003 (ip), vehicle: saline with Tween-80
[4] = endpoint: mean survival time, dose: 100.0 mg/kg/injection, schedule: Q01DX009 (ip), vehicle: saline with Tween-80
[5] = endpoint: mean survival time, dose: 200.0 mg/kg/injection, schedule: Q01DX009 (ip), vehicle: saline with Tween-80
[6] = endpoint: mean survival time, dose: 400.0 mg/kg/injection, schedule: Q01DX009 (ip), vehicle: saline with Tween-80

**Q.** `O=C1CCCCCCCCCCC1Sc1ccccc1` (stereo not given) was tested. Which T/C [1] did it give?
**A.** Its T/C is 91 % of control.

**Q.** What about the T/C [2] of the same compound?
**A.** The T/C was 100 % of control.

**Q.** And the T/C [3]?
**A.** The T/C was 91 % of control.

**Q.** Which T/C (endpoint: mean survival time, dose: 1.25 mg/kg/injection, schedule: Q01DX009 (ip), vehicle: saline with Tween-80) does the source give for `CCCCCCCCCC1=NC(C)(C)CN1C(C)(C)CO` here?
**A.** Its T/C is 106 % of control.

**Q.** And the T/C (endpoint: mean survival time, dose: 2.5 mg/kg/injection, schedule: Q01DX009 (ip), vehicle: saline with Tween-80)?
**A.** Its T/C is 109 % of control.

**Q.** And the T/C (endpoint: mean survival time, dose: 5.0 mg/kg/injection, schedule: Q01DX009 (ip), vehicle: saline with Tween-80)?
**A.** The T/C was 91 % of control.

**Q.** `CSc1ccc(NC(=O)CCl)cc1` was tested. Which T/C [1] did it give?
**A.** Its T/C is 91 % of control.

**Q.** How did the T/C (endpoint: mean survival time, dose: 0.5 mg/kg/injection, schedule: Q01DX009 (ip), vehicle: Klucel (hydroxypropylcellulose) (HPC)) turn out when `COc1cc(OC)c2c(O)c3c(c(-c4ccc5cc6c(c(O)c5c4O)C(=O)CC(C)(O)C6)c2c1)CC(C)OC3C` (stereo not given) was run?
**A.** Its T/C is 103 % of control.

**Q.** What about the T/C (endpoint: mean survival time, dose: 1.0 mg/kg/injection, schedule: Q01DX009 (ip), vehicle: Klucel (hydroxypropylcellulose) (HPC)) of the same compound?
**A.** Its T/C is 100 % of control.

**Q.** What about the T/C (endpoint: mean survival time, dose: 2.0 mg/kg/injection, schedule: Q01DX009 (ip), vehicle: Klucel (hydroxypropylcellulose) (HPC)) of the same compound?
**A.** Its T/C is 103 % of control.

**Q.** What does the source list for `CCCCCCCCCCCCCCCCC(CCC)C1CCCCC1` (stereo not given)?
**A.** T/C (endpoint: mean survival time, dose: 100.0 mg/kg/injection, schedule: Q01DX001 (ip), vehicle: saline with Tween-80): 92 % of control; T/C (endpoint: mean survival time, dose: 200.0 mg/kg/injection, schedule: Q01DX001 (ip), vehicle: saline with Tween-80): 104 % of control; T/C (endpoint: mean survival time, dose: 400.0 mg/kg/injection, schedule: Q01DX001 (ip), vehicle: saline with Tween-80): 101 % of control

**Q.** Which results are given for `Cc1cc(=O)[nH]c(-c2ccccc2)c1C(=O)O`?
**A.** T/C (endpoint: mean survival time, dose: 100.0 mg/kg/injection, schedule: Q04DX002 (ip), vehicle: saline with Tween-80): 95 % of control; T/C (endpoint: mean survival time, dose: 200.0 mg/kg/injection, schedule: Q04DX002 (ip), vehicle: saline with Tween-80): 95 % of control; T/C (endpoint: mean survival time, dose: 400.0 mg/kg/injection, schedule: Q04DX002 (ip), vehicle: saline with Tween-80): 95 % of control

**Q.** `CCC1(O)C(=O)OCc2c1cc1n(c2=O)Cc2cc3cc(O)c(O)cc3nc2-1` (stereo not given) was tested. Which T/C (endpoint: median survival time, dose: 10.0 mg/kg/injection, schedule: Q04DX002 (ip), vehicle: saline with Tween-80) did it give?
**A.** The T/C was 153 % of control.

**Q.** What about the T/C (endpoint: median survival time, dose: 40.0 mg/kg/injection, schedule: Q04DX002 (ip), vehicle: saline with Tween-80) of the same compound?
**A.** Its T/C is 157 % of control.

**Q.** What about the T/C (endpoint: median survival time, dose: 80.0 mg/kg/injection, schedule: Q04DX002 (ip), vehicle: saline with Tween-80) of the same compound?
**A.** The T/C was 173 % of control.

**Q.** What does the source list for `COC(=O)C(F)C(Br)C(=O)OC` (stereo not given)?
**A.** T/C (endpoint: mean survival time, dose: 3.12 mg/kg/injection, schedule: Q01DX009 (ip), vehicle: saline with Tween-80): 108 % of control; T/C (endpoint: mean survival time, dose: 6.25 mg/kg/injection, schedule: Q01DX009 (ip), vehicle: saline with Tween-80): 97 % of control; T/C (endpoint: mean survival time, dose: 12.5 mg/kg/injection, schedule: Q01DX009 (ip), vehicle: saline with Tween-80): 107 % of control; T/C (endpoint: mean survival time, dose: 25.0 mg/kg/injection, schedule: Q01DX009 (ip), vehicle: saline with Tween-80): 105 % of control; T/C (endpoint: mean survival time, dose: 50.0 mg/kg/injection, schedule: Q01DX009 (ip), vehicle: saline with Tween-80): 108 % of control

**Q.** Which T/C (endpoint: mean survival time, dose: 0.37 mg/kg/injection, schedule: Q01DX009 (ip), vehicle: saline with Tween-80) does the source give for `N#CC(=C1SCS1)[N+](=O)[O-]` here?
**A.** The T/C was 101 % of control and 102 % of control.

**Q.** What about the T/C (endpoint: mean survival time, dose: 0.75 mg/kg/injection, schedule: Q01DX009 (ip), vehicle: saline with Tween-80) of the same compound?
**A.** Its T/C is 101 % of control.

**Q.** What about the T/C (endpoint: mean survival time, dose: 1.5 mg/kg/injection, schedule: Q01DX009 (ip), vehicle: saline with Tween-80) of the same compound?
**A.** The T/C was 100 % of control and 102 % of control.

**Q.** And the T/C (endpoint: mean survival time, dose: 3.0 mg/kg/injection, schedule: Q01DX009 (ip), vehicle: saline with Tween-80)?
**A.** The T/C was 102 % of control and 104 % of control.

**Q.** What about the T/C (endpoint: mean survival time, dose: 6.0 mg/kg/injection, schedule: Q01DX009 (ip), vehicle: saline with Tween-80) of the same compound?
**A.** The T/C was 108 % of control.

**Q.** What about the T/C (endpoint: mean survival time, dose: 12.0 mg/kg/injection, schedule: Q01DX009 (ip), vehicle: saline with Tween-80) of the same compound?
**A.** Its T/C is 106 % of control.

**Q.** With `Nc1ccn(CCC(COCc2ccccc2)COCc2ccccc2)c(=O)n1` as the compound, how does the T/C (endpoint: mean survival time, dose: 100.0 mg/kg/injection, schedule: Q04DX003 (ip), vehicle: Klucel (hydroxypropylcellulose) (HPC)) read?
**A.** The T/C was 100 % of control.

**Q.** What about the T/C (endpoint: mean survival time, dose: 200.0 mg/kg/injection, schedule: Q04DX003 (ip), vehicle: Klucel (hydroxypropylcellulose) (HPC)) of the same compound?
**A.** Its T/C is 96 % of control.

**Q.** What about the T/C (endpoint: mean survival time, dose: 400.0 mg/kg/injection, schedule: Q04DX003 (ip), vehicle: Klucel (hydroxypropylcellulose) (HPC)) of the same compound?
**A.** The T/C was 96 % of control.

**Q.** What does the source list for `C=C(C)C1CCC2(COS(=O)(=O)c3ccc(C)cc3)CCC3(C)C(CCC4C5(C)CCC(OC6CCCCO6)C(C)(C)C5CCC43C)C12` (stereo not given)?
**A.** T/C (endpoint: mean survival time, dose: 25.0 mg/kg/injection, schedule: Q04DX002 (ip), vehicle: saline with Tween-80): 103 % of control; T/C (endpoint: mean survival time, dose: 50.0 mg/kg/injection, schedule: Q04DX002 (ip), vehicle: saline with Tween-80): 92 % of control

**Q.** How did the T/C (endpoint: mean survival time, dose: 2.0 mg/kg/injection, schedule: Q01DX009 (ip), vehicle: saline) turn out when `O=C1C(N2CC2)=C(N2CCCC(O)C2)C(=O)C(N2CC2)=C1N1CCCC(O)C1` (stereo not given) was run?
**A.** Its T/C is 162 % of control and 173 % of control.

**Q.** `CC(=O)NC1C(O)C(NC(C)=O)C(OC(C)=O)C(OC(C)=O)C1OC(C)=O` (stereo not given) was tested. Which T/C [4] did it give?
**A.** Its T/C is 95 % of control.

**Q.** What about the T/C [5] of the same compound?
**A.** Its T/C is 103 % of control.

**Q.** And the T/C [6]?
**A.** The T/C was 103 % of control.

**Q.** How did the T/C [4] turn out when `N#CCCN1C(=O)CCC1=O` was run?
**A.** The T/C was 97 % of control.

**Q.** And the T/C [1]?
**A.** The T/C was 95 % of control.

**Q.** What about the T/C [5] of the same compound?
**A.** The T/C was 95 % of control.

**Q.** And the T/C [2]?
**A.** The T/C was 97 % of control.

**Q.** What about the T/C [6] of the same compound?
**A.** The T/C was 92 % of control.

**Q.** What about the T/C [3] of the same compound?
**A.** The T/C was 95 % of control.
